Tested on: T1, GABAA receptor α1β2γ2
T1 construct: gene GABRA1; α1β2γ2 heteromer transiently expressed in HEK293 cells; with GABAA receptor β2 and γ2 subunits
Assay: whole-cell patch clamp, […] co-applied with […] GABA ([…] of GABA current, P < […])
Assay type: cell-based

SMILES: C=CC(C)(O)CCC=C(C)C (stereo not shown) [Linalool, 3,7-dimethyl-1,6-octadiene-3-ol]
- % of GABA current at 2 mM: 160 ± 14 % of GABA current at 2 mM

Source: paper PMC5478857, “Metabolic Products of Linalool and Modulation of GABAA Receptors” (Frontiers in Chemistry, 2017)
